Results published in patent publication US8722849B2, “Polypeptides” (Novo Nordisk A/S, priority 2011, dated 2014).
≈ marks a conversion by molar mass, not a printed value. Like-named read-outs stand apart in the source and are kept apart here. Starred links: 1 amine or outer side, 2 acyl side, 3 side chain; linkers in the order of their positions; H or OH if unused. Positions of bridges follow the written chain, without caps; N, C: chain ends. Residues, ends and D or L forms follow the SMILES beside them. Groups on a side chain read outwards from the residue. *: point of attachment. C20 diacid = O=C(O)CCCCCCCCCCCCCCCCCCC(=O)*; γGlu = O=C(O)[C@H](CCC(=O)[*:2])N[*:1]; AEEA = NCCOCCOCC(=O)O

Experiment: Assay (IV) determination of solubility
Type: physicochemical
Procedure, shortened: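 Polypeptide in water (~500 nmol/ml) mixed 1:1 with 100 mM glycylglycine (pH 3.0–5.0) or bistrispropane (pH 6.0–8.0) buffers. Held 18 hours at room temperature, then centrifuged. Polypeptide remaining in solution quantified by HPLC.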

[1] = pH 3, pH 3.0, read-out: Solubility pH 3.0
[2] = pH 4, pH 4.0, 18 hours at room temperature, Table 2, read-out: Solubility pH 4.0
[3] = pH 4, pH 4.0, read-out: Solubility pH 4.0
[4] = pH 5, pH 5.0, read-out: Solubility pH 5.0
[5] = pH 6, pH 6.0, read-out: Solubility pH 6.0
[6] = pH 6.5, pH 6.5, read-out: Solubility pH 6.5
[7] = pH 7, pH 7.0, read-out: Solubility pH 7.0
[8] = pH 7.5, pH 7.5, read-out: Solubility pH 7.5

solubility [1] [µM]	solubility [2] [µM]	solubility [3] [µM]	solubility [4] [µM]	solubility [5] [µM]	solubility [6] [µM]	solubility [7] [µM]	solubility [8] [µM]	solubility (pH 7, pH 7.0, 18 hours at room temperature, Table 3, read-out: Solubility pH 7.0) [µM]	solubility (pH 8, pH 8.0, read-out: Solubility pH 8.0) [µM]	SMILES
> 200	> 200	> 200	> 200	51 (≈ 243 µg/mL)	19 (≈ 90.5 µg/mL)	1 (≈ 4.76 µg/mL)	1 (≈ 4.76 µg/mL)	–	–	CC[C@H](C)[C@H](NC(=O)[C@@H]1CCCN1C(=O)CNC(=O)[C@H](Cc1ccccc1)NC(=O)[C@H](CC(N)=O)NC(=O)[C@H](CCCCNC(=O)COCCOCCNC(=O)COCCOCCNC(=O)CC[C@H](NC(=O)CCCCCCCCCCCCCCCCCCC(=O)O)C(=O)O)NC(=O)[C@H](CO)NC(=O)[C@H](CO)NC(=O)[C@H](Cc1c[nH]cn1)NC(=O)[C@H](Cc1c[nH]cn1)NC(=O)[C@H](CC(C)C)NC(=O)[C@H](Cc1ccccc1)NC(=O)[C@H](CCC(=O)O)NC(=O)[C@H](C)NC(=O)[C@H](CC(C)C)NC(=O)[C@H](CCCNC(=N)N)NC(=O)[C@H](CCC(N)=O)NC(=O)[C@@H](NC(=O)[C@H](C)NC(=O)[C@@H]1CSSC[C@H](NC(=O)[C@@H](N)CCCCN)C(=O)N[C@@H](CC(N)=O)C(=O)N[C@@H]([C@@H](C)O)C(=O)N[C@@H](C)C(=O)N[C@@H]([C@@H](C)O)C(=O)N1)[C@@H](C)O)C(=O)N[C@@H](CC(C)C)C(=O)N[C@@H](CO)C(=O)N[C@@H](CO)C(=O)N[C@H](C(=O)N[C@@H](CC(N)=O)C(=O)N[C@H](C(=O)NCC(=O)N[C@@H](CO)C(=O)N[C@@H](Cc1c[nH]cn1)C(=O)N[C@H](C(=O)N[C@@H](Cc1ccc(O)cc1)C(N)=O)[C@@H](C)O)C(C)C)[C@@H](C)O [Example 148, N-epsilon21-[2-(2-{2-[2-(2-{2-[(S)-4-Carboxy-4-(19-carboxyheptadecanoylamino)butyrylamino]ethoxy}ethoxy)acetylamino]ethoxy}ethoxy)acetyl]-[Glu14,His17,Lys21,Ser28,Ser29,His35]-pramlintide] (H-KCNTATCATQRLAEFLHHSSK([AEEA-AEEA-γGlu-C20 diacid])NFGPILSSTNVGSHTY-NH2; disulfide 2-7)
> 200	> 200	> 200	107 (≈ 509 µg/mL)	1 (≈ 4.75 µg/mL)	1 (≈ 4.75 µg/mL)	1 (≈ 4.75 µg/mL)	1 (≈ 4.75 µg/mL)	–	–	CC[C@H](C)[C@H](NC(=O)[C@H](CCCCNC(=O)COCCOCCNC(=O)COCCOCCNC(=O)CC[C@H](NC(=O)CCCCCCCCCCCCCCCCCCC(=O)O)C(=O)O)NC(=O)CNC(=O)[C@H](Cc1ccccc1)NC(=O)[C@H](CC(N)=O)NC(=O)[C@H](CO)NC(=O)[C@H](CO)NC(=O)[C@H](CO)NC(=O)[C@H](Cc1c[nH]cn1)NC(=O)[C@H](Cc1c[nH]cn1)NC(=O)[C@H](CC(C)C)NC(=O)[C@H](Cc1ccccc1)NC(=O)[C@H](CCC(=O)O)NC(=O)[C@H](C)NC(=O)[C@H](CC(C)C)NC(=O)[C@H](CCCNC(=N)N)NC(=O)[C@H](CCC(N)=O)NC(=O)[C@@H](NC(=O)[C@H](C)NC(=O)[C@@H]1CSSC[C@H](NC(=O)[C@@H](N)CCCCN)C(=O)N[C@@H](CC(N)=O)C(=O)N[C@@H]([C@@H](C)O)C(=O)N[C@@H](C)C(=O)N[C@@H]([C@@H](C)O)C(=O)N1)[C@@H](C)O)C(=O)N[C@@H](CC(C)C)C(=O)N[C@@H](CO)C(=O)N[C@@H](CO)C(=O)N[C@H](C(=O)N[C@@H](CC(N)=O)C(=O)N[C@H](C(=O)NCC(=O)N[C@@H](CO)C(=O)N[C@@H](Cc1c[nH]cn1)C(=O)N[C@H](C(=O)N[C@@H](Cc1ccc(O)cc1)C(N)=O)[C@@H](C)O)C(C)C)[C@@H](C)O [Example 133, N-epsilon25-[2-(2-{2-[2-(2-{2-[(S)-4-Carboxy-4-(19-carboxyheptadecanoylamino)butyrylamino]ethoxy}ethoxy)acetylamino]ethoxy}ethoxy)acetyl]-[Glu14,His17,Ser21,Lys25,Ser28,Ser29.His35]-pramlintide] (H-KCNTATCATQRLAEFLHHSSSNFGK([AEEA-AEEA-γGlu-C20 diacid])ILSSTNVGSHTY-NH2; disulfide 2-7)
> 200	> 200	> 200	> 200	> 200	> 200	> 200	> 200	> 200	> 200	CC[C@H](C)[C@H](NC(=O)[C@@H]1CCCN1C(=O)CNC(=O)[C@H](Cc1ccccc1)NC(=O)[C@H](CC(N)=O)NC(=O)[C@H](CCC(N)=O)NC(=O)[C@H](CO)NC(=O)[C@H](CO)NC(=O)[C@H](Cc1c[nH]cn1)NC(=O)[C@H](CCCNC(=N)N)NC(=O)[C@H](CC(C)C)NC(=O)[C@H](Cc1ccccc1)NC(=O)[C@H](CCC(=O)O)NC(=O)[C@H](C)NC(=O)[C@H](CC(C)C)NC(=O)[C@H](CCCNC(=N)N)NC(=O)[C@H](CCC(N)=O)NC(=O)[C@@H](NC(=O)[C@H](C)NC(=O)[C@@H]1CSSC[C@H](NC(=O)[C@H](CCCNC(=N)N)NC(=O)[C@H](CCC(=O)O)NC(=O)[C@H](CCC(=O)O)NC(=O)CC[C@H](NC(=O)CCCCCCCCCCCCCCCCCCC(=O)O)C(=O)O)C(=O)N[C@@H](CC(N)=O)C(=O)N[C@@H]([C@@H](C)O)C(=O)N[C@@H](C)C(=O)N[C@@H]([C@@H](C)O)C(=O)N1)[C@@H](C)O)C(=O)N[C@@H](CC(C)C)C(=O)N1CCC[C@H]1C(=O)N1CCC[C@H]1C(=O)N[C@H](C(=O)N[C@@H](CCC(N)=O)C(=O)N[C@H](C(=O)NCC(=O)N[C@@H](CO)C(=O)N[C@@H](CCC(N)=O)C(=O)N[C@H](C(=O)N1CCC[C@H]1C(N)=O)[C@@H](C)O)C(C)C)[C@@H](C)O [Example 159, N-alpha-[(S)-4-Carboxy-4-(19-carboxynonadecanoylamino)butyryl]-Glu-Glu-[Arg1,Glu14,Arg17,Gln21,Gln31,Gln35,Pro37]-pramlintide] ({C20 diacid-γGlu}-EERCNTATCATQRLAEFLRHSSQNFGPILPPTQVGSQTP-NH2; disulfide 4-9)
> 200	> 200	> 200	> 200	47 (≈ 224 µg/mL)	2 (≈ 9.55 µg/mL)	1 (≈ 4.77 µg/mL)	1 (≈ 4.77 µg/mL)	–	–	CC[C@H](C)[C@H](NC(=O)[C@@H]1CCCN1C(=O)CNC(=O)[C@H](Cc1ccccc1)NC(=O)[C@H](CC(N)=O)NC(=O)[C@H](CCCCNC(=O)COCCOCCNC(=O)COCCOCCNC(=O)CC[C@H](NC(=O)CCCCCCCCCCCCCCCCCCC(=O)O)C(=O)O)NC(=O)[C@H](CO)NC(=O)[C@H](CO)NC(=O)[C@H](Cc1c[nH]cn1)NC(=O)[C@H](Cc1c[nH]cn1)NC(=O)[C@H](CC(C)C)NC(=O)[C@H](Cc1ccccc1)NC(=O)[C@H](CCC(=O)O)NC(=O)[C@H](C)NC(=O)[C@H](CC(C)C)NC(=O)[C@H](CCCNC(=N)N)NC(=O)[C@H](CCC(N)=O)NC(=O)[C@@H](NC(=O)[C@H](C)NC(=O)[C@@H]1CSSC[C@H](NC(=O)[C@@H](N)CCCCN)C(=O)N[C@@H](CC(N)=O)C(=O)N[C@@H]([C@@H](C)O)C(=O)N[C@@H](C)C(=O)N[C@@H]([C@@H](C)O)C(=O)N1)[C@@H](C)O)C(=O)N[C@@H](CC(C)C)C(=O)N[C@@H](CO)C(=O)N1CCC[C@H]1C(=O)N[C@H](C(=O)N[C@@H](CC(N)=O)C(=O)N[C@H](C(=O)NCC(=O)N[C@@H](CO)C(=O)N[C@@H](Cc1c[nH]cn1)C(=O)N[C@H](C(=O)N[C@@H](Cc1ccc(O)cc1)C(N)=O)[C@@H](C)O)C(C)C)[C@@H](C)O [Example 144, N-epsilon21-[2-(2-{2-[2-(2-{2-[(S)-4-Carboxy-4-(19-carboxyheptadecanoylamino)butyrylamino]ethoxy}ethoxy)acetylamino]ethoxy}ethoxy)acetyl]-[Glu14,His17,Lys21,Ser28,His35]-pramlintide] (H-KCNTATCATQRLAEFLHHSSK([AEEA-AEEA-γGlu-C20 diacid])NFGPILSPTNVGSHTY-NH2; disulfide 2-7)
> 200	> 200	> 200	> 200	1 (≈ 4.79 µg/mL)	1 (≈ 4.79 µg/mL)	1 (≈ 4.79 µg/mL)	1 (≈ 4.79 µg/mL)	–	–	CC[C@H](C)[C@H](NC(=O)[C@@H]1CCCN1C(=O)CNC(=O)[C@H](Cc1ccccc1)NC(=O)[C@H](CC(N)=O)NC(=O)[C@H](CCCCNC(=O)COCCOCCNC(=O)COCCOCCNC(=O)CC[C@H](NC(=O)CCCCCCCCCCCCCCCCCCC(=O)O)C(=O)O)NC(=O)[C@H](CO)NC(=O)[C@H](CO)NC(=O)[C@H](Cc1c[nH]cn1)NC(=O)[C@@H](NC(=O)[C@H](CC(C)C)NC(=O)[C@H](Cc1ccccc1)NC(=O)[C@H](CCC(=O)O)NC(=O)[C@H](C)NC(=O)[C@H](CC(C)C)NC(=O)[C@H](CCCNC(=N)N)NC(=O)[C@H](CCC(N)=O)NC(=O)[C@@H](NC(=O)[C@H](C)NC(=O)[C@@H]1CSSC[C@H](NC(=O)[C@@H](N)CCCCN)C(=O)N[C@@H](CC(N)=O)C(=O)N[C@@H]([C@@H](C)O)C(=O)N[C@@H](C)C(=O)N[C@@H]([C@@H](C)O)C(=O)N1)[C@@H](C)O)C(C)C)C(=O)N[C@@H](CC(C)C)C(=O)N[C@@H](CO)C(=O)N[C@@H](CCCNC(=N)N)C(=O)N[C@H](C(=O)N[C@@H](CC(N)=O)C(=O)N[C@H](C(=O)NCC(=O)N[C@@H](CO)C(=O)N[C@@H](Cc1c[nH]cn1)C(=O)N[C@H](C(=O)N[C@@H](Cc1ccc(O)cc1)C(N)=O)[C@@H](C)O)C(C)C)[C@@H](C)O [Example 147, N-epsilon21-[2-(2-{2-[2-(2-{2-[(S)-4-Carboxy-4-(19-carboxyheptadecanoylamino)butyrylamino]ethoxy}ethoxy)acetylamino]ethoxy}ethoxy)acetyl]-[Glu14,Lys21,Ser28,Arg29,His35]-pramlintide] (H-KCNTATCATQRLAEFLVHSSK([AEEA-AEEA-γGlu-C20 diacid])NFGPILSRTNVGSHTY-NH2; disulfide 2-7)
